Data on 6 compounds can be found in paper PMC4700511 (Biochemistry, 2015).

One data set concerns E. coli pBC SK(−). In words: MIC by agar dilution, E. coli DH10B with empty pBC SK. It counts as cell-based. Conditions: Escherichia coli.
Data set [1] deals with E. coli DH10B pBCSK(−) producing VIM-2 (228R). The experiment in a line: MIC by agar dilution, E. coli DH10B pBCSK. In kind it is cell-based. As to conditions: Escherichia coli. On the technique in general: In agar dilution, organisms are placed on agar that contains the substance at set levels.
For data set [2], the system named is E. coli DH10B pBCSK(−) producing VIM-24 (R228L). In words: MIC by agar dilution, E. coli DH10B pBCSK. It counts as cell-based. Conditions: Escherichia coli.
The subject of data set [3] is E. coli DH10B pBCSK(−) producing R228K. The experiment in a line: MIC by agar dilution, E. coli DH10B pBCSK. It counts as cell-based. Conditions: Escherichia coli.
Data set [4] has as its system E. coli DH10B pBCSK(−) producing R228P. The experiment in a line: MIC by agar dilution, E. coli DH10B pBCSK. It counts as cell-based. Conditions: Escherichia coli.
Data set [5] deals with E. coli DH10B pBCSK(−) producing R228M. In words: MIC by agar dilution, E. coli DH10B pBCSK. In kind it is cell-based. As to conditions: Escherichia coli.
The subject of data set [6] is E. coli DH10B pBCSK(−) producing R228Q. The experiment in a line: MIC by agar dilution, E. coli DH10B pBCSK. It counts as cell-based. As to conditions: Escherichia coli.
The subject of data set [7] is E. coli DH10B pBCSK(−) producing R228Y. In words: MIC by agar dilution, E. coli DH10B pBCSK. It counts as cell-based. Conditions: Escherichia coli.
Data set [8] concerns E. coli DH10B pBCSK(−) producing R228X (other variants). In words: MIC by agar dilution, E. coli DH10B pBCSK. It counts as cell-based. As to conditions: Escherichia coli, R228X: range of MIC values of the other variants; MHA.
The target in data set [9] is T1, VIM-2 (Escherichia coli, UniProt Q5U7L7). The experiment in a line: BTZ inhibition kinetics of nitrocefin hydrolysis by VIM-2. It counts as biochemical, P. aeruginosa. Conditions: for Ki: overall dissociation constant from vs, slow binding model.
In data set [10] the target is T2, VIM-24 (Escherichia coli, UniProt Q5U7L7, R205L). In words: BTZ inhibition kinetics of nitrocefin hydrolysis by VIM-24. In kind it is biochemical, Klebsiella pneumoniae. As to conditions: for Ki: overall dissociation constant from vs, slow binding model.
The next data set has as its system MBLs. In words: Inhibitory activity toward MBLs after prolonged exposure to oxidative conditions. It counts as biochemical. Conditions: assays in solution; data not shown.
Data set [11] has as its target T1, VIM-2. The experiment in a line: Hydrolysis of cefepime and ceftazidime by periplasm preparations, VIM-2. It counts as biochemical, P. aeruginosa. Conditions: VIM-2 periplasmic preparation; 800 μM cefepime.
Data set [12] deals with T2, VIM-24. The experiment in a line: Hydrolysis of cefepime and ceftazidime by periplasm preparations, VIM-24. In kind it is biochemical, Klebsiella pneumoniae. As to conditions: VIM-24 periplasmic preparation; 800 μM cefepime.
[13] abbreviates: rate constant for formation of E*I.

≈ marks a conversion by molar mass, not a printed value. Some results are limits rather than exact numbers.

For orientation: MIC means the lowest concentration that inhibits growth of the organism. Usually Ki stands for the dissociation constant of the complex between target and ligand, obtained from inhibition or displacement. Low values mean higher affinity, high ones lower affinity.

With `CO/N=C(\C(=O)N[C@@H]1C(=O)N2C(C(=O)O)=C(COC(C)=O)CS[C@H]12)c1csc(N)n1` [cefotaxime], the MIC was 0.06 µg/mL (≈ 0.132 µM) against E. coli pBC SK(−) (MHA); 8 µg/mL (≈ 17.6 µM) in data set [1] (MHA); 16 µg/mL (≈ 35.1 µM) in data set [2] (MHA); 1 µg/mL (≈ 2.2 µM) in [3] (MHA); 1 µg/mL (≈ 2.2 µM) in [4] (MHA); 16 µg/mL (≈ 35.1 µM) in data set [5] (MHA). For the same compound, the MIC was 32 µg/mL (≈ 70.3 µM) in data set [6] (MHA), 16 µg/mL (≈ 35.1 µM) in [7] (MHA) and 2 to 32 µg/mL (≈ 4.39 to 70.3 µM) in data set [8].
In the case of `O=C(O)[C@H]1CS[C@@H]2CS[C@@H](CS)N12` [D-CS319], the Ki came to 180 ± 20 nM at VIM-2 [9] and 640 ± 10 nM at VIM-24 [10]. For the same compound, the k2 entry on VIM-2 [9] (setting [13]) is on record as “(0.01 ± 1) × 10^−3 s^−1”; at VIM-24 [10] (setting [13]), “(0.07 ± 4) × 10^−3 s^−1”. Besides, at VIM-24 [10] (rate constant for breakdown of E*I), the “k−2” value is given as “(0.004 ± 1) × 10^−3 s^−1”.
Turning to `CO/N=C(\C(=O)N[C@@H]1C(=O)N2C(C(=O)O)=C(CSc3nc(=O)c(=O)[nH]n3C)CS[C@H]12)c1csc(N)n1` [ceftriaxone], the MIC in the data set on E. coli pBC SK(−) (MHA) came out at 0.5 µg/mL (≈ 0.902 µM); in [1] (MHA), 8 µg/mL (≈ 14.4 µM); in data set [2] (MHA), 8 µg/mL (≈ 14.4 µM); in data set [3] (MHA) it was 1 µg/mL (≈ 1.8 µM); in [4] (MHA), 0.5 µg/mL (≈ 0.902 µM); in data set [5] (MHA), 16 µg/mL (≈ 28.9 µM). Also, the minimal inhibitory concentration (MIC) was 32 µg/mL (≈ 57.7 µM) in data set [6] (MHA), 16 µg/mL (≈ 28.9 µM) in data set [7] (MHA) and 1 to 16 µg/mL (≈ 1.8 to 28.9 µM) in data set [8].
Turning to `O=C(O)[C@@H]1CS[C@H]2CS[C@H](CS)N21` [L-CS319], the Ki on VIM-2 [9] is 40 ± 10 nM; at VIM-24 [10] it was 120 ± 20 nM. Also, the “effect of prolonged exposure to oxidative conditions on inhibitory activity” value with MBLs is recorded as “abolishes the inhibitory activity”.
As to `C[C@H]1[C@H](NC(=O)/C(=N\OC(C)(C)C(=O)O)c2csc(N)n2)C(=O)N1S(=O)(=O)O` [aztreonam], the MIC (against E. coli pBC SK(−) (MHA); in data set [1] (MHA); in data set [2] (MHA); in data set [3] (MHA); in data set [4] (MHA); in [5] (MHA)) was no more than 0.125 µg/mL throughout. For the same compound, the minimum inhibitory concentration (MIC) in [6] (MHA), in [7] (MHA) and in [8] was no more than 0.125 µg/mL in each case.
Regarding `CO/N=C(\C(=O)N[C@@H]1C(=O)N2C(C(=O)[O-])=C(C[N+]3(C)CCCC3)CS[C@H]12)c1csc(N)n1` [cefepime], the MIC is 0.03 µg/mL (≈ 0.0624 µM) against E. coli pBC SK(−) (MHA); no more than 0.25 µg/mL with E. coli pBC SK(−) (MHA + 5 μM EDTA); no more than 0.25 µg/mL in the data set with E. coli pBC SK(−) (MHA + 250 μM Zn^2+); no more than 0.5 µg/mL in data set [1] (MHA); 0.5 µg/mL in data set [1] (MHA + 5 μM EDTA); 0.5 µg/mL in data set [1] (MHA + 250 μM Zn^2+). Besides, the MIC was 4 µg/mL (≈ 8.32 µM) in [2] (MHA); 4 µg/mL in [2] (MHA + 5 μM EDTA); 4 µg/mL in [2] (MHA + 250 μM Zn^2+); 0.5 µg/mL (≈ 1.04 µM) in data set [3] (MHA); no more than 0.25 µg/mL in data set [3] (MHA + 5 μM EDTA); no more than 0.25 µg/mL in [3] (MHA + 250 μM Zn^2+). The minimal inhibitory concentration (MIC) in data set [4] (MHA) is 0.25 µg/mL (≈ 0.52 µM); in [4] (MHA + 5 μM EDTA), no more than 0.25 µg/mL; in [4] (MHA + 250 μM Zn^2+), 0.5 µg/mL; in data set [5] (MHA) it was 2 µg/mL (≈ 4.16 µM); in data set [5] (MHA + 5 μM EDTA), 4 µg/mL; in data set [5] (MHA + 250 μM Zn^2+), 2 µg/mL. Further, the minimal inhibitory concentration (MIC) in data set [6] (MHA) was determined as 16 µg/mL (≈ 33.3 µM); in data set [6] (MHA + 5 μM EDTA), 16 µg/mL; in [6] (MHA + 250 μM Zn^2+) it was 32 µg/mL; in data set [7] (MHA) it was 8 µg/mL (≈ 16.6 µM); in [7] (MHA + 5 μM EDTA), 8 µg/mL; in [7] (MHA + 250 μM Zn^2+), 8 µg/mL. Also, in data set [8], the MIC is 1 to 4 µg/mL (≈ 2.08 to 8.32 µM). For the same compound, the “rate of hydrolysis (initial velocity) in periplasm” value at VIM-2 [11] stood at 2.9e-07 M/s; on VIM-24 [12], 5.3e-07 M/s.
